Values of other authors as cited in patent US9309233B2, “Compositions and methods for the treatment of blood clotting disorders” (CELLIX BIO PRIVATE LIMITED, priority 2012, dated 2016).

oral bioavailability (oral) | time at which plasma levels peak (plasma levels of dabigatran after drug administration (dabigatran etexilate)) | Structure (SMILES)
≈ 6% | – | CCCCCCOC(=O)NC(=N)c1ccc(NCc2nc3cc(C(=O)N(CCC(=O)OCC)c4ccccn4)ccc3n2C)cc1 [Dabigatran etexilate]
– | ≈ 2 hours | [H]/N=C(/N)c1ccc(NCc2nc3cc(C(=O)N(CCC(=O)O)c4ccccn4)ccc3n2C)cc1 [dabigatran]
